Paper PMC6958329, “New ^55Co-labeled Albumin-Binding Folate Derivatives as Potential PET Agents for Folate Receptor Imaging” (Pharmaceuticals, 2019)
Values joined by “and” are separate entries in the source; they are usually repeats but may differ in a detail not shown here. Equal values may be shown once.

System: KB tumor bearing mice
Assay: In vivo biodistribution in KB tumor bearing mice
Details: for Biodistribution, Tumor: KB tumor; for Biodistribution, Tumor / Biodistribution, Blood / Biodistribution, Bone / Biodistribution, Brain / Biodistribution, Fat / Biodistribution, Heart / Biodistribution, Intestine / Biodistribution, Kidney / Biodistribution, Liver / Biodistribution, Lungs / Biodistribution, Muscle / Biodistribution, Pancreas / Biodistribution, Skin / Biodistribution, Spleen / Biodistribution, Stomach: n = 4
Method: The in vivo behavior of each ^55Co-labeled folate was evaluated in KB-tumor bearing mice via biodistribution studies and PET/CT imaging. The biodistribution data are presented in Table 3 and Table 4, and are reported as the percent of injected activity per gram of tissue (% IA/g). Statistically significant differences in renal uptake between the two ^55Co-labeled compounds were observed. At 4 h post-injection, the radiofolates had uptake values in the kidneys of 36% ± 7% IA/g for [^55Co]Co-cm10 and 53% ± 12% IA/g for [^55Co]Co-rf42. […] Lower renal uptake for [^55Co]Co-cm10 may in part be due to slightly higher lipophilicity (supported by its larger molecular weight and a longer HPLC-retention time) in comparison to [^55Co]Co-rf42. […] Despite the differences in blood retention, tumor uptake for both radiofolates was similar with values of 17% ± 2% IA/g for [^55Co]Co-cm10 and 17% ± 4% IA/g for [^55Co]Co-rf42 at 4 h post-injection. […] The PET/CT images (presented as maximal intensity projections) confirm the biodistribution findings, highlighting the kidneys and tumors as the tissues with the highest activity uptake (Figure 5).
All animal studies were performed using a protocol approved by the Institutional Animal Care and Use Committee at the University of Alabama at Birmingham and were in compliance with national animal welfare policies and guidelines. Female athymic nude mice (Charles River, Wilmington, MA, USA), age 5 weeks, were implanted with KB cells via subcutaneous injection of 5 × 10^6 cells in 100 μL of PBS in the right shoulder. Tumors were allowed to grow for 12 days, during which time mice were fed Teklad Folic Acid Deficient Diet (Envigo, Huntingdon, United Kingdom).
Biodistribution and imaging studies for [^55Co]Co-cm10 and [^55Co]Co-rf42 were performed at 4 h and 24 h post-injection on groups of four mice. An additional cohort of mice was co-injected with a blocking dose of folic acid (100 μg), and biodistribution was performed at 4 h post-injection. At 2 h, mice were induced using 3% isoflurane and a 50 μL blood sample was taken retro-orbitally to monitor blood activity at an early time point.
The radiofolates were prepared as described with final molar activities of 835.5 MBq/μmol (22.6 mCi/μmol) for [^55Co]Co-cm10 and 957.6 MBq/μmol (25.9 mCi/μmol) for [^55Co]Co-rf42 in 60 μL reaction volume. Injections (100 µL) were prepared by dilution of the radiofolates in sterile saline (pH = 7). The final [^55Co]Co-cm10 injection contained 1,924 kBq (52 μCi) and 2.3 nmol cm10 and the final [^55Co]Co-rf42 injection contained 2,479 kBq […] and 2.4 nmol rf42. Blocking doses contained an additional 100 µg of folic acid and were prepared by diluting the radiofolates with 1 μg/μL folic acid in sterile saline (pH adjusted to 7). Mice were euthanized humanely by cervical dislocation following anaesthetization with 3% isoflurane, and their organs were collected, weighed and counted using an automatic gamma counter.

[1] = 4 h, co-administration of 100 µg folic acid blocking dose

`Nc1nc2ncc(CNc3ccc(C(=O)N[C@@H](CCC(=O)NC(CCCCNC(=O)CN4CCN(CC(=O)O)CCN(CC(=O)O)CCN(CC(=O)O)CC4)C(=O)NC(CCCCNC(=O)CCCc4ccc(I)cc4)C(=O)O)C(=O)O)cc3)nc2c(=O)[nH]1.[55Co]` (stereo partly shown) [[^55Co]Co-cm10] was tested, and the “Biodistribution, Tumor” value [1] was 8 ± 4 % IA/g, the “Biodistribution, Blood” value [1] was 17 ± 3 % IA/g and the “Biodistribution, Bone” value [1] was 2.2 ± 0.8 % IA/g. For the same compound, the “Biodistribution, Brain” value [1] was 0.6 ± 0.2 % IA/g, the “Biodistribution, Fat” value [1] was 4 ± 1 % IA/g and the “Biodistribution, Heart” value [1] was 4.2 ± 0.7 % IA/g. The “Biodistribution, Intestine” value [1] was 2.3 ± 0.4 % IA/g, the “Biodistribution, Kidney” value [1] was 16 ± 4 % IA/g and the “Biodistribution, Liver” value [1] was 3.5 ± 0.5 % IA/g. The “Biodistribution, Lungs” value [1] was 7 ± 3 % IA/g, the “Biodistribution, Muscle” value [1] was 2.1 ± 0.7 % IA/g and the “Biodistribution, Pancreas” value [1] was 2.4 ± 0.7 % IA/g. The “Biodistribution, Skin” value [1] was 5 ± 1 % IA/g, the “Biodistribution, Spleen” value [1] was 2.2 ± 0.4 % IA/g and the “Biodistribution, Stomach” value [1] was 1.5 ± 0.1 % IA/g. The “Biodistribution, Blood” value (4 h post-injection) was 14 % IA/g and 13.8 ± 0.8 % IA/g, the “Biodistribution, Bone” value (4 h post-injection) was 1.8 ± 0.6 % IA/g and the “Biodistribution, Brain” value (4 h post-injection) was 0.8 ± 0.1 % IA/g. The “Biodistribution, Fat” value (4 h post-injection) was 5 ± 1 % IA/g, the “Biodistribution, Heart” value (4 h post-injection) was 4.7 ± 0.6 % IA/g and the “Biodistribution, Intestine” value (4 h post-injection) was 1.9 ± 0.3 % IA/g. For the same compound, the “Biodistribution, Liver” value (4 h post-injection) was 3.7 ± 0.6 % IA/g, the “Biodistribution, Lungs” value (4 h post-injection) was 5.4 ± 0.6 % IA/g and the “Biodistribution, Muscle” value (4 h post-injection) was 2.4 ± 0.9 % IA/g. For the same compound, the “Biodistribution, Pancreas” value (4 h post-injection) was 2.4 ± 0.7 % IA/g, the “Biodistribution, Skin” value (4 h post-injection) was 6 ± 2 % IA/g and the “Biodistribution, Spleen” value (4 h post-injection) was 2.0 ± 0.4 % IA/g. The “Biodistribution, Stomach” value (4 h post-injection) was 0.8 ± 0.2 % IA/g, the “Biodistribution, Blood” value (24 h post-injection) was 2.6 ± 0.3 % IA/g and the “Biodistribution, Bone” value (24 h post-injection) was 0.8 ± 0.2 % IA/g. The “Biodistribution, Brain” value (24 h post-injection) was 0.45 ± 0.08 % IA/g, the “Biodistribution, Fat” value (24 h post-injection) was 3 ± 2 % IA/g and the “Biodistribution, Heart” value (24 h post-injection) was 1.7 ± 0.2 % IA/g. The “Biodistribution, Intestine” value (24 h post-injection) was 0.92 ± 0.08 % IA/g, the “Biodistribution, Kidney” value (24 h post-injection) was 30 ± 2 % IA/g and the “Biodistribution, Liver” value (24 h post-injection) was 1.9 ± 0.3 % IA/g. The “Biodistribution, Lungs” value (24 h post-injection) was 1.9 ± 0.3 % IA/g, the “Biodistribution, Muscle” value (24 h post-injection) was 1.3 ± 0.3 % IA/g and the “Biodistribution, Pancreas” value (24 h post-injection) was 1.4 ± 0.2 % IA/g. For the same compound, the “Biodistribution, Skin” value (24 h post-injection) was 7 ± 3 % IA/g, the “Biodistribution, Spleen” value (24 h post-injection) was 1.0 ± 0.1 % IA/g and the “Biodistribution, Stomach” value (24 h post-injection) was 0.34 ± 0.09 % IA/g.

In the case of `Nc1nc2ncc(CNc3ccc(C(=O)N[C@@H](CCC(=O)NC(CCCCNC(=O)CCC(C(=O)O)N4CCN(CC(=O)O)CCN(CC(=O)O)CC4)C(=O)NC(CCCCNC(=O)CCCc4ccc(I)cc4)C(=O)O)C(=O)O)cc3)nc2c(=O)[nH]1.[55Co]` (stereo partly shown) [[^55Co]Co-rf42], the “Biodistribution, Tumor” value [1] is reported as 7 ± 2 % IA/g, the “Biodistribution, Blood” value [1] is reported as 15 ± 2 % IA/g and the “Biodistribution, Bone” value [1] is reported as 1.7 ± 0.5 % IA/g. The “Biodistribution, Brain” value [1] was 0.5 ± 0.1 % IA/g, the “Biodistribution, Fat” value [1] was 2.7 ± 0.6 % IA/g and the “Biodistribution, Heart” value [1] was 4 ± 1 % IA/g. The “Biodistribution, Intestine” value [1] was 2.2 ± 0.3 % IA/g, the “Biodistribution, Kidney” value [1] was 12 ± 4 % IA/g and the “Biodistribution, Liver” value [1] was 4 ± 1 % IA/g. For the same compound, the “Biodistribution, Lungs” value [1] was 5.6 ± 0.3 % IA/g, the “Biodistribution, Muscle” value [1] was 1.5 ± 0.3 % IA/g and the “Biodistribution, Pancreas” value [1] was 2.2 ± 0.2 % IA/g. The “Biodistribution, Skin” value [1] was 3.5 ± 0.8 % IA/g, the “Biodistribution, Spleen” value [1] was 2.1 ± 0.3 % IA/g and the “Biodistribution, Stomach” value [1] was 1.1 ± 0.5 % IA/g. For the same compound, the “Biodistribution, Blood” value (4 h post-injection) was 8 % IA/g and 8 ± 3 % IA/g, the “Biodistribution, Bone” value (4 h post-injection) was 1.3 ± 0.2 % IA/g and the “Biodistribution, Brain” value (4 h post-injection) was 0.7 ± 0.1 % IA/g. For the same compound, the “Biodistribution, Fat” value (4 h post-injection) was 3.2 ± 0.9 % IA/g, the “Biodistribution, Heart” value (4 h post-injection) was 2.9 ± 0.4 % IA/g and the “Biodistribution, Intestine” value (4 h post-injection) was 2.2 ± 0.5 % IA/g. For the same compound, the “Biodistribution, Liver” value (4 h post-injection) was 3.8 ± 0.6 % IA/g, the “Biodistribution, Lungs” value (4 h post-injection) was 4 ± 1 % IA/g and the “Biodistribution, Muscle” value (4 h post-injection) was 1.6 ± 0.4 % IA/g. The “Biodistribution, Pancreas” value (4 h post-injection) was 2.4 ± 0.5 % IA/g, the “Biodistribution, Skin” value (4 h post-injection) was 8 ± 1 % IA/g and the “Biodistribution, Spleen” value (4 h post-injection) was 1.5 ± 0.3 % IA/g. For the same compound, the “Biodistribution, Stomach” value (4 h post-injection) was 0.8 ± 0.4 % IA/g, the “Biodistribution, Blood” value (24 h post-injection) was 1.0 ± 0.4 % IA/g and the “Biodistribution, Bone” value (24 h post-injection) was 0.6 ± 0.2 % IA/g. The “Biodistribution, Brain” value (24 h post-injection) was 0.4 ± 0.1 % IA/g, the “Biodistribution, Fat” value (24 h post-injection) was 2.7 ± 0.2 % IA/g and the “Biodistribution, Heart” value (24 h post-injection) was 2.0 ± 0.4 % IA/g. The “Biodistribution, Intestine” value (24 h post-injection) was 0.8 ± 0.2 % IA/g, the “Biodistribution, Kidney” value (24 h post-injection) was 46 ± 14 % IA/g and the “Biodistribution, Liver” value (24 h post-injection) was 2.9 ± 0.5 % IA/g. For the same compound, the “Biodistribution, Lungs” value (24 h post-injection) was 1.5 ± 0.4 % IA/g, the “Biodistribution, Muscle” value (24 h post-injection) was 1.2 ± 0.6 % IA/g and the “Biodistribution, Pancreas” value (24 h post-injection) was 1.9 ± 0.3 % IA/g. The “Biodistribution, Skin” value (24 h post-injection) was 6 ± 2 % IA/g, the “Biodistribution, Spleen” value (24 h post-injection) was 0.6 ± 0.2 % IA/g and the “Biodistribution, Stomach” value (24 h post-injection) was 0.5 ± 0.2 % IA/g. For the same compound, the tumor-to-kidney ratio (compared with [^64Cu]Cu-rf42 and [^68Ga]Ga-rf42, Figure 6) was “lowest”.
